Experimental data as given in US20260027066A1, “NANOSCALE MATRIMERES” (THE BOARD OF TRUSTEES OF THE UNIVERSITY OF ILLINOIS, priority 2022, published 2026).

Tests used:
[1] = tested on: FN^+ matrimeres secreted from MSCs; assay: Effects of pharmacological modulators on FN+ matrimere secretion from MSCs; format: cell-based, mouse; details: 24 hours in culture with drug vs DMSO control
Experimental: FIGS. 6A-6C show the effects of pharmacological modulators on FN^+ matrimere secretion. (FIG. 6A) Overview of the potential biogenesis pathway for FN^+ matrimeres, known regulators, and their pharmacological modulators. (FIG. 6B) Total number of nanostructures per MSC after 24 hours in culture with drugs or DMSO control. (FIG. 6C) Percent of FN^+ particles in MSC-secreted nanostructures. (FIG. 6D) Total number of FN^+ particles per cell. *p<0.05. n=3 experiments. p-values from one-way ANOVA followed by Tukey's post-test. All data are shown as mean±s.d. BMS-P5 (CAS No. 1550371-22-6); Bafilomycin-A1 (BafA1, CAS No. 88899-55-2); curcumin analog C1 (CA-C1, CAS No. 39777-61-2); ML-SA5 (CAS No. 2418670-70-7).
For excess DNA to be released from the nucleus, arginine in histone undergoes modification from positive to neutral charge via citrullination, which is mediated by peptidylarginine deiminase (PAD) (FIG. 6A). […] Most cells (>90%) remained viable after drug treatment. Thus, autophagy and lysosome are potential mediators of FN^+ matrimere biogenesis.

[2] = tested on: human umbilical vein endothelial cell (HUVEC) monolayer; assay: Transendothelial electrical resistance (TEER) assay of endothelial monolayer after LPS treatment; format: cell-based; details: cilengitide 200 nM
Experimental: (FIG. 3A) TEER kinetics of the human umbilical vein endothelial cell (HUVEC) monolayer showing the rescue of LPS (1 μM)—compromised TEER by the CD63-depleted fraction of MSC-secreted nanostructures. (FIG. 3B) Changes in TEER from 6.5 hours to 24 hours after washing out LPS followed by treatment. ****p<0.0001. n=3 experiments. p-values were derived from one-way ANOVA followed by Dunnett's T3 post-test. All data are shown as mean±s.d.
FIG. 8A-8B show the effects of reconstituted FN-DNA matrimeres on the recovery of TEER after 6 hours LPS (1 μM) treatment in vitro. (FIG. 8A) TEER kinetics. (FIG. 8B) Percentage of TEER recovery. n=3 experiments.
The effect of depleting different mouse MSC-secreted nanostructure subpopulations on their ability to reverse hyperpermeability of the endothelial cell monolayer after LPS treatment in vitro was assessed by a transendothelial electrical resistance (TEER) assay. TEER was decreased with LPS over 6 hours, while TEER was only partially rescued after washing out LPS in 24 hours. […] Competitive inhibition of RGD-binding integrins by cilengitide (cyclic RGD, 200 nM) impaired the ability of CD63-depleted fraction to restore TEER (FIG. 3B). […]
It was subsequently determined whether in vitro reconstituted FN-DNA particles could restore permeability of the endothelial cell monolayer after LPS treatment. […]

| Structure (SMILES) | FN^+ matrimeres secreted from MSCs [1] | FN^+ particle number per cell [1] | further results |
| --- | --- | --- | --- |
| COc1cc(C(=O)N2C[C@H](N)CC[C@@H]2C)cc2nc(-c3cc4cccnc4n3CC3CC3)n(C)c12 [BMS-P5] | decreased | – | – |
| CC(C)[C@H]1C(=O)N[C@@H](CCCN=C(N)N)C(=O)NCC(=O)N[C@@H](CC(=O)O)C(=O)N[C@H](Cc2ccccc2)C(=O)N1C [cilengitide] | – | – | effect on ability of reconstituted FN-DNA particles to restore TEER [2]: partially impaired; effect on ability of CD63-depleted fraction to restore TEER ([2]; competitive inhibition of RGD-binding integrins): impaired |
| CO/C1=C\C(C)=C\[C@@H](C)[C@@H](O)[C@@H](C)C/C(C)=C/C=C/[C@H](OC)[C@@H]([C@@H](C)[C@@H](O)[C@H](C)[C@@]2(O)C[C@@H](O)[C@H](C)[C@@H](C(C)C)O2)OC1=O [bafilomycin-A1] | decreased | – | – |
| CN(C)S(=O)(=O)c1ccc(S(=O)(=O)Nc2cccc(Cl)c2N2CCCCC2)cc1 [ML-SA5, N′-[3-Chloro-2-(1-piperidinyl)phenyl]-N,N-dimethyl-1,4-benzenedisulfonamide] | – | significantly increased | – |
| COc1ccccc1/C=C/C(=O)/C=C/c1ccccc1OC [curcumin analog C1, (1E,4E)-1,5-bis(2-methoxyphenyl)-1,4-pentadien-3-one] | – | significantly increased | – |
